Earlier results in publication PMC12337022, “Randomized, Double-Blind, Crossover Study Comparing the Bioavailability of 4 Ashwagandha (Withania somnifera (L.) Dunal) Extracts in Healthy Adults Under Fasting Condition” (Current Therapeutic Research, Clinical and Experimental, 2025).
Like-named read-outs stand apart in the source and are kept apart here.

Key:
[1] = system: Madin-Darby canine kidney cells
[2] = parameters: method as in Dai et al 20; settings: rat and human liver microsomes; ref Dai et al 20
[3] = parameters: method as in Singh et al 25; settings: Sprague-Dawley rats, orally at 25 mg/kg and intravenously at 2 mg/kg; ref Singh et al 25
[4] = parameters: method as in Pires et al 27; settings: Phase I dose-escalation, 13 participants, highest dose level tested, HPLC sensitivity 50 ng/mL; ref Pires et al 27
[5] = Madin-Darby canine kidney cells, in vitro

| permeability [1, 5] | Compound | permeability ([1]; MDCK) | further results |
| --- | --- | --- | --- |
| highly permeable | 1,2-deoxy-withastramonolide | – | – |
| low permeability | CC1=C(CO)C(=O)O[C@@H]([C@@H](C)[C@H]2CC[C@H]3[C@@H]4C[C@H]5O[C@]56[C@@H](O)C=CC(=O)[C@]6(C)[C@H]4CC[C@]23C)C1 [withaferin A] | – | half-life [2]: 5.6 min; oral bioavailability [3]: about 5%; detectability in plasma [4]: not detectable |
| – | CC1=C(C)C(=O)O[C@@H]([C@](C)(O)[C@H]2CC[C@H]3[C@@H]4[C@@H]5O[C@@H]5[C@@]5(O)CC=CC(=O)[C@]5(C)[C@H]4CC[C@]23C)C1 [withanolide A] | highly permeable | – |
| – | CC1=C(C)C(=O)O[C@@H]([C@@H](C)[C@H]2CC[C@H]3[C@@H]4[C@@H]5O[C@@H]5[C@@]5(O)CC=CC(=O)[C@]5(C)[C@H]4CC[C@]23C)C1 [withanolide B] | highly permeable | – |
| – | CC1=C(CO)C(=O)O[C@@H]([C@@H](C)[C@H]2CC[C@H]3[C@@H]4CC=C5C[C@@H](O[C@@H]6O[C@H](CO[C@@H]7O[C@H](CO)[C@@H](O)[C@H](O)[C@H]7O)[C@@H](O)[C@H](O)[C@H]6O)C[C@H](O)[C@]5(C)[C@H]4CC[C@]23C)C1 [withanoside IV] | low permeability | – |
| – | CC1=C(C)C(=O)O[C@@H]([C@@H](C)[C@H]2CC[C@H]3[C@@H]4CC=C5C[C@@H](O[C@@H]6O[C@H](CO[C@@H]7O[C@H](CO)[C@@H](O)[C@H](O)[C@H]7O)[C@@H](O)[C@H](O)[C@H]6O)C[C@H](O)[C@]5(C)[C@H]4CC[C@]23C)C1 [withanoside V] | low permeability | – |

| Compound | permeability [1, 5] | permeability ([1]; MDCK) | further results |
| --- | --- | --- | --- |
| CC1=C(C)C(=O)O[C@@H]([C@@H](C)[C@@]2(O)CC[C@H]3[C@@H]4[C@@H]5O[C@@H]5[C@@]5(O)CC=CC(=O)[C@]5(C)[C@H]4CC[C@@]32C)C1 [withanone] | highly permeable | – | – |
